{"source": "patent US20250230193A1", "about": "“CYCLIC COMPOUND HAVING SELECTIVE KRAS INHIBITORY EFFECT ON HRAS AND NRAS” (CHUGAI SEIYAKU KABUSHIKI KAISHA, priority 2022, published 2025)", "key": {"[1]": {"target": "GDP-bound HRAS wild-type protein (Homo sapiens, UniProt P01112)", "sequence (P01112 whole entry)": "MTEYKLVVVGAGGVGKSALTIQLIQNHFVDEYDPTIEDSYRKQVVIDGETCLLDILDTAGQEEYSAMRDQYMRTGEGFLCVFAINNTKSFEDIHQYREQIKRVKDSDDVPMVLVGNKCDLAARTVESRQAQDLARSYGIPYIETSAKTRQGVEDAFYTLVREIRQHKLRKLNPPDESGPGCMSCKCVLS", "experiment": "Binding to HRAS by surface plasmon resonance (SPR), Single Cycle Kinetics", "details": "for HRAS/KRAS (ratio of KD value with respect to HRAS to KD value with respect to KRAS): GDP-bound HRAS wild-type vs GDP-bound KRAS wild-type"}, "[2]": {"target": "GDP-bound NRAS wild-type protein (Homo sapiens, UniProt P01111)", "sequence (P01111 whole entry)": "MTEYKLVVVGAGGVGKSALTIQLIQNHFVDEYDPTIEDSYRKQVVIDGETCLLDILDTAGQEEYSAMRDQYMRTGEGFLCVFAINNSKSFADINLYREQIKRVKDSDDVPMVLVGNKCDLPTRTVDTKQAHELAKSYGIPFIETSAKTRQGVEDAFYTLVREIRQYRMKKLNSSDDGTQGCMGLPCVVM", "experiment": "Binding to NRAS by surface plasmon resonance (SPR), Single Cycle Kinetics", "details": "for NRAS/KRAS (ratio of KD value with respect to NRAS to KD value with respect to KRAS): GDP-bound NRAS wild-type vs GDP-bound KRAS wild-type"}, "[3]": {"details": "KD ratio HRAS/KRAS, class symbols"}, "[4]": {"details": "KD ratio NRAS/KRAS, class symbols"}, "[5]": {"details": "KD ratio HRAS/KRAS, SPR, GDP-bound wild-type proteins"}, "[6]": {"details": "KD ratio NRAS/KRAS, SPR, GDP-bound wild-type proteins"}}, "note": "Where a SMILES comes first, the peptide text is derived from it. Bridges are numbered along the chain shown (N, C = ends). [ ]: non-standard residue; d: D form. The star is where a group is joined. hPhe(3-Cl-4-CF3) = N[C@@H](CCc1ccc(C(F)(F)F)c(Cl)c1)C(=O)O; NPrPhe(4-CF3) = CCCN[C@@H](Cc1ccc(C(F)(F)F)cc1)C(=O)O; NMeGly(cPent) = CN[C@H](C(=O)O)C1CCCC1; NMeD = CN[C@@H](CC(=O)O)C(=O)O; NMeL = CN[C@@H](CC(C)C)C(=O)O; Morpholide = C1CN(*)CCO1; Ac4c = NC1(C(=O)O)CCC1; Sar = CNCC(=O)O"}
{"molecule": "CCCOC[C@H]1C(=O)N[C@@H]([C@@H](C)CC)C(=O)N(C)CC(=O)N(C)[C@H]2C/C=C\\CCN(C2=O)[C@@H](Cc2ccc(C)cc2)C(=O)N(C)CC(=O)N[C@@H](CCc2cc(F)c(C(F)(F)F)c(F)c2)C(=O)N2C[C@H](CCC)C[C@H]2C(=O)NC2(CCCC2)C(=O)N(C)[C@@H](C2CCCC2)C(=O)N(C)[C@H](C(=O)N(C)C)CC(=O)N1C", "note": "[PP2229]", "values": [{"measurement": "HRAS/KRAS (ratio of KD value with respect to HRAS to KD value with respect to KRAS)", "setting": "[1]; SPR", "result": "A (a compound having 10 or more and less than 20 is denoted as A)"}, {"measurement": "NRAS/KRAS (ratio of KD value with respect to NRAS to KD value with respect to KRAS)", "setting": "[2]; SPR", "result": "A (a compound having 10 or more and less than 20 is denoted as A)"}]}
{"molecule": "CCCN1C(=O)CN(C)C(=O)CNC(=O)[C@H]([C@@H](C)CC)NC(=O)[C@H](CC(C)C)N(C)C(=O)C[C@@H](C(=O)N2CCOCC2)N(C)C(=O)[C@H](C2CCCC2)N(C)C(=O)C2(CCC2)NC(=O)[C@@H]2CCCN2C(=O)[C@H](CCc2ccc(C(F)(F)F)c(Cl)c2)NC(=O)CN(C)C(=O)[C@@H]1Cc1ccc(C(F)(F)F)cc1", "note": "[PP0393] ([NMeL]IG[Sar][NPrPhe(4-CF3)][Sar][hPhe(3-Cl-4-CF3)]P[Ac4c][NMeGly(cPent)][NMeD]-Morpholide; lactam N-11)", "values": [{"measurement": "HRAS/KRAS (ratio of KD for GDP-bound HRAS wild-type to KD for KRAS)", "setting": "[1]; KD ratio HRAS/KRAS, SPR", "result": "B (a compound having 3 or more and less than 10 is denoted as B)"}, {"measurement": "NRAS/KRAS (ratio of KD for GDP-bound NRAS wild-type to KD for KRAS)", "setting": "[2]; KD ratio NRAS/KRAS, SPR", "result": "B (a compound having 3 or more and less than 10 is denoted as B)"}]}
{"molecule": "CCOC[C@H]1C(=O)N[C@@H]([C@@H](C)CC)C(=O)N(C2CC2)CC(=O)N(C)[C@H]2C/C=C\\CCN(C2=O)[C@@H](CC2CCCCC2)C(=O)N(C)CC(=O)N[C@@H](CCc2ccc(C(F)(F)F)c(OC)c2)C(=O)N2C[C@H](OCC)C[C@H]2C(=O)N(C)C2(CCC2)C(=O)N(C)[C@@H](C2CCCC2)C(=O)N(C)[C@H](C(=O)N(C)C)CC(=O)N1C", "note": "[PP2342]", "values": [{"measurement": "HRAS/KRAS (ratio of KD value with respect to HRAS to KD value with respect to KRAS)", "setting": "[1]; SPR", "result": "A (a compound having 10 or more and less than 20 is denoted as A)"}, {"measurement": "NRAS/KRAS (ratio of KD value with respect to NRAS to KD value with respect to KRAS)", "setting": "[2]; SPR", "result": "A (a compound having 10 or more and less than 20 is denoted as A)"}]}
{"molecule": "CCC[C@H]1C(=O)N[C@@H]([C@@H](C)CC)C(=O)N(C2CC2)CC(=O)N(C)[C@H]2C/C=C\\CCN(C2=O)[C@@H](Cc2ccc(C)cc2)C(=O)N(C)CC(=O)N[C@@H](CCc2cc(F)c(C(F)(F)F)c(F)c2)C(=O)N2C[C@H](OCC)C[C@H]2C(=O)NC2(CC(C)(C)C2)C(=O)N(C)[C@@H](C(CC)CC)C(=O)N(C)[C@H](C(=O)N(C)C)CC(=O)N1C", "note": "[PP2560]", "values": [{"measurement": "HRAS/KRAS (ratio of KD value with respect to GDP-bound HRAS wild-type protein to KD value with respect to KRAS)", "setting": "[1]; [3]", "result": "A (a compound having 10 or more and less than 20 is denoted as A)"}, {"measurement": "NRAS/KRAS (ratio of KD value with respect to GDP-bound NRAS wild-type protein to KD value with respect to KRAS)", "setting": "[2]; [4]", "result": "AA (a compound having 20 or more is denoted as AA)"}]}
{"molecule": "CC[C@H](C)[C@@H]1NC(=O)[C@@H]2CCCc3ccc(cc3)C[C@@H](C(=O)N(C)CC(=O)N[C@@H](CCc3ccc(C(F)(F)F)c(OC)c3)C(=O)N3C[C@H](OC4CCCC4)C[C@H]3C(=O)NC3(CC(C)(C)C3)C(=O)N(C)[C@@H](C3CCCC3)C(=O)N(C)[C@H](C(=O)N(C)CC)CC(=O)N2C)N2CC/C=C\\C[C@@H](C2=O)N(C)C(=O)CN(C)C1=O", "note": "[PP3086]", "values": [{"measurement": "HRAS/KRAS (ratio of KD value with respect to GDP-bound HRAS wild-type protein to KD value with respect to KRAS)", "setting": "[1]; [5]", "result": "B (a compound having 3 or more and less than 10 is denoted as B)"}, {"measurement": "NRAS/KRAS (ratio of KD value with respect to GDP-bound NRAS wild-type protein to KD value with respect to KRAS)", "setting": "[2]; [6]", "result": "B (a compound having 3 or more and less than 10 is denoted as B)"}]}
{"molecule": "CC[C@H](C)[C@@H]1NC(=O)[C@@H]2CCCCc3ccc(cc3)C[C@@H](C(=O)N(C)CC(=O)N[C@@H](CCc3ccc(C(F)(F)F)c(OC)c3)C(=O)N3CC4(CC4)C[C@H]3C(=O)NC3(CC(C)(C)C3)C(=O)N(C)[C@@H](C3CCCC3)C(=O)N(C)[C@H](C(=O)N(C)CC)CC(=O)N2C)N2CC/C=C\\C[C@@H](C2=O)N(C)C(=O)CN(C)C1=O", "note": "[PP3081]", "values": [{"measurement": "HRAS/KRAS (ratio of KD value with respect to GDP-bound HRAS wild-type protein to KD value with respect to KRAS)", "setting": "[1]; [5]", "result": "B (a compound having 3 or more and less than 10 is denoted as B)"}, {"measurement": "NRAS/KRAS (ratio of KD value with respect to GDP-bound NRAS wild-type protein to KD value with respect to KRAS)", "setting": "[2]; [6]", "result": "A (a compound having 10 or more and less than 20 is denoted as A)"}]}
{"molecule": "CCO[C@@H]1C[C@H]2C(=O)NC3(CC(C)(C)C3)C(=O)N(C)[C@@H](C(CC)CC)C(=O)N(C)[C@H](C(=O)N(C)C)CC(=O)N(C)[C@@H](COC)C(=O)N[C@@H]([C@@H](C)CC)C(=O)N3CCC[C@H]3C(=O)N(C)[C@H]3C/C=C\\CCN(C3=O)[C@@H](Cc3ccc(C(F)(F)F)cc3)C(=O)N(C)CC(=O)N[C@@H](CCc3ccc(Cl)c(Cl)c3)C(=O)N2C1", "note": "[PP2635]", "values": [{"measurement": "HRAS/KRAS (ratio of KD value with respect to GDP-bound HRAS wild-type protein to KD value with respect to KRAS)", "setting": "[1]; [3]", "result": "A (a compound having 10 or more and less than 20 is denoted as A)"}, {"measurement": "NRAS/KRAS (ratio of KD value with respect to GDP-bound NRAS wild-type protein to KD value with respect to KRAS)", "setting": "[2]; [4]", "result": "AA (a compound having 20 or more is denoted as AA)"}]}
